The text below walks through data of US10800778B2 (Entasis Therapeutics Limited, priority 2016, dated 2020).

What is called IC50 is the concentration needed to halve the response being measured.

Data set [1] can be described thus: Stability/conversion of esters in human intestinal S9. Format: in vitro ADME. How it is done:
(§1) The human intestinal S9 with the absence of PMSF, human liver S9, rat intestinal S9, and rat liver S9 preparations were obtained from Xenotech (Lenexa, Kans.). The 500-μL incubation solution contained 0.8 mg/mL of enzyme (or no enzyme for buffer stability), 10 μM of test compounds in 100 mM of HEPES buffer, pH 7.4. The hydrolysis reactions were conducted in a 1-mL glass insert (Analytical Sales, Pompton Plains, N.J.) in a shake water bath at 37° C. At 0, 2, 5, 10, 15, 30 and 60 min, the reaction was terminated by pipetting 50 μL incubate to a 96 DeepWell plate (Thermo Fisher Scientific, Rochester, N.Y.) containing 100 μL of acetonitrile with 250 ng/mL of Carbutamide (Sigma-Aldrich, St. Louis, Miss.) as the internal standard. The crashed solutions were then vortexed well followed by centrifuge at 4000 rpm for 15 min at 4° C. The extract was transferred to a new 96 DeepWell plate for LC-MS/MS analysis.
(§2) LC-MS/MS analysis was done using an AB Sciex QTrap 6500 mass spectrometer under positive ionization mode, coupled to a Schimadzu Nexera LC system.
(§3) A Waters Atlantis T3 (3 μm, 3.0×50 mm) column was used for separation. The mobile phase consisted 0.1% formic acid in water (A) and 0.1% formic acid in acetonitrile (B) with a flow rate set at 1.2 mL/min. For the prodrug analysis, the Multiple Reaction Monitoring (MRM) specific for each compound was set up so that both prodrug and its hydrolyzed active can be monitored simultaneously.
(§4) Half-lives listed are based on disappearance of starting ester.

Data set [2] can be described thus: Stability/conversion of esters in rat intestinal S9. Format: in vitro ADME. Here is the method: as §1, §2, §3, §4
Data set [3] can be described thus: Stability in pH 7.4 buffer (no enzyme). The class given is physicochemical. The conditions noted are these: read-out: T1/2 pH 7.4 Buffer. Here is the method:
as §1, §2, §3, §4

Data set [4] is described as follows: Stability/conversion of esters in rat liver S9. The class given is in vitro ADME. How it is done: as §1, §2, §3, §4
Data set [5] can be described thus: Stability/conversion of esters in human liver S9. Format: in vitro ADME. Here is the method:
as §1, §2, §3, §4

The subject of data set [6] is Klebsiella pneumoniae SHV-18, OXA-2, OKP-6 (ATCC 700603). Kind of data set: MIC, CLSI broth microdilution, beta-lactam with or without BLI. The class given is cell-based. The conditions noted are these: BLI at fixed 4 μg/mL; K. pneumoniae SHV-18, OXA-2, OKP-6 (ATCC 700603). How it is done:
The minimal inhibitory concentration (MIC) values against each organism and drug combination were determined using the Clinical and Laboratory Standards Institute guidelines (CLSI) broth microdilution methodology (CLSI M07-A10). The recommended quality control (QC) bacterial strains E. coli ATCC 25922, E. coli ATCC 35218 and Klebsiella pneumoniae ATCC 700603 were incorporated into each test according to the CLSI guidelines to assure that there was no variation between test dates (CLSI M100-S25). The MICs of these QC strains were within QC range on all test occasions. Drug containing plates were made using the master plate method. A cefpodoxime solution was prepared to 20× concentration and 2-fold serial dilutions were made in cation adjusted Mueller-Hinton Broth. Equal volumes of 20× examplar compounds at a fixed concentration were added to the master plate. 10 uL was stamped into daughter plates using a Tecan EVO robot. Organism suspensions were adjusted to a 0.5 McFarland standard and further diluted to yield a final inoculum between 3×10^5 and 7×10^5 colony-forming units (CFU)/mL. Bacterial inocula were made in sterile, cation adjusted Mueller-Hinton Broth (Beckton Dickinson). An inoculum volume of 1.1× concentration of 90 uL was added to wells (using a Tecan EVO robot). All inoculated microdilution plates were incubated in ambient air at 35° C. for 18-24 hours.
Following the procedure from Example 103, MICs were determined for several beta-lactams in presence of a fixed concentration (4 μg/mL) of exemplar compounds (Table 3) against 3 Enterobacteriaceae strains.

The target of data set [7] is TEM-1 (Class A beta-lactamase) (Escherichia coli, UniProt P62593). Kind of data set: Inhibition of beta-lactamase enzymes (nitrocefin hydrolysis), TEM-1. Format: biochemical. The conditions noted are these: read-out: Class A TEM-1 60 min IC50, nitrocefin 100 μM. Here is the method:
(§5) A buffer consisting of 0.1 M sodium phosphate (pH 7.0), 10 mM NaHCO3, and 0.005% Triton X-100 was used for all enzymes. The chromogenic substrate nitrocefin (SynGene, Bangalore, India) was used at 100 μM. Enzyme activity was monitored by the 490 nm absorbance increase upon nitrocefin hydrolysis. Assays were performed in clear polystyrene 384-well plates (Greiner Bio-One, Monroe, N.C.). Absorbance was measured for 1 hour at 30-s intervals using a Spectramax absorbance plate reader (Molecular Devices, Sunnyvale, Calif.). Measurement of beta-lactamase inhibition by INHIBITOR employed serial 3-fold dilutions of the inhibitor in assay buffer, ranging from 100 μM to 62.7 pM. A background absorbance progress curve for a control lacking enzyme and inhibitor was subtracted from each progress curve.
(§6) The complete set of progress curves for one enzyme with all inhibitor concentrations was subjected to numerical integration with the program Kintek Global Kinetic Explorer (Kintek Corp, Snowshoe Pa.) to obtain a best-fit to the mechanism shown in Scheme 10.
(§7) where E, S, ES, P, I, and EI are the concentrations of the enzyme, nitrocefin, the enzyme-nitrocefin complex, the nitrocefin hydrolysis product, INHIBITOR, and the enzyme-INHIBITOR complex respectively. […] The values of k+2, k+3, and k−3 were fit. Concentration series offsets of the absorbance measurements were used to correct for slight absorbance baseline differences between wells. The parameter k+3 is equivalent to the second order rate constant kinact/Ki. In some cases, the inhibition was in rapid equilibrium on the experimental time scale, so that only the ratio k−3/k+3=Ki could be determined. Although k−3 represents reversal of inhibitor binding in Scheme 10, hydrolysis of the enzyme-inhibitor complex could not be excluded based on kinetic measurements.
(§8) Best-fit absorbance values from the above procedure at each time point for each compound concentration were exported to Excel.
(§9) where A is the best-fit absorbance without inhibitor and Ainhib is the best-fit absorbance in the presence of the inhibitor.
(§10) where [I] is the inhibitor concentration and n is the Hill coefficient. The Excel add-in XLfit (ID Business Solutions) was used for nonlinear regression.

Data set [8] concerns the target OXA-48 (Class D beta-lactamase) (Klebsiella pneumoniae, UniProt Q6XEC0). Kind of data set: Inhibition of beta-lactamase enzymes (nitrocefin hydrolysis), OXA-48. Format: biochemical. The conditions noted are these: read-out: Class D OXA-48 60 min IC50, nitrocefin 100 μM. Here is the method:
as §5, §6, §7, §8, §9, §10

Where [9] appears, read: intestinal S9 (without PMSF), pH 7.4, read-out: T1/2 Human Intestinal S9.
[10] abbreviates: intestinal S9, pH 7.4, read-out: T1/2 Rat Intestinal S9.
Where [11] appears, read: liver S9, pH 7.4, read-out: T1/2 Rat Liver S9.
[12] abbreviates: liver S9, pH 7.4, read-out: T1/2 Human Liver S9.

Where a name gives a salt, the structure may show the parent alone.

Sequence of TEM-1 (Class A beta-lactamase) (P62593 whole entry, looked up, species assumed): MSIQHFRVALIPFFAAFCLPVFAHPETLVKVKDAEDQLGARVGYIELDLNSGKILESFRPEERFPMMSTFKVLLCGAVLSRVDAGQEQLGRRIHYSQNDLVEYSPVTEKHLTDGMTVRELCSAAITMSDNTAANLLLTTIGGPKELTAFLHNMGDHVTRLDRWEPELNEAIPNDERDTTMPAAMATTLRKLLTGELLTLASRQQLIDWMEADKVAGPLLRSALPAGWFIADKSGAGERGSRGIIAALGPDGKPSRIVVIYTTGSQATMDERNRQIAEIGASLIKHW
Sequence of OXA-48 (Class D beta-lactamase) (Q6XEC0 whole entry, looked up, species assumed): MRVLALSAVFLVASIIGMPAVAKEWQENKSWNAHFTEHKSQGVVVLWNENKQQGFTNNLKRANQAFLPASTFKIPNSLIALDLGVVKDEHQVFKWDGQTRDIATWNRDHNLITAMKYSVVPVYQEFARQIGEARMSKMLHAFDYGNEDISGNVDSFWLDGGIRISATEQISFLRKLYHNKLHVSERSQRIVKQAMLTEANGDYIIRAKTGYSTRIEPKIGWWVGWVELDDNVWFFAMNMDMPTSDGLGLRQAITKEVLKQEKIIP

Consider `CC1=C[C@@H]2CN(C(=O)N2O[C@H](F)C(=O)OC(C)OC(=O)OC(C)C)[C@@H]1C(N)=O` (stereo partly drawn) [Example 53, 1-isopropoxycarbonyloxyethyl (2R)-2-[[(2S,5R)-2-carbamoyl-3-methyl-7-oxo-1,6-diazabicyclo[3.2.1]oct-3-en-6-yl]oxy]-2-fluoro-acetate], for which the half-life at 10 μM was < 1 min in data set [1] (setting [9]); 4.2 min in data set [2] (setting [10]); 4.8 min in data set [3] (HEPES buffer without enzyme); 2 min in data set [4] (setting [11]); 1.7 min in data set [5] (setting [12]).

In the case of `CC1=C[C@@H]2CN(C(=O)N2O[C@H](F)C(=O)OCc2ccccc2)[C@@H]1C(N)=O` [Example 54, (2R)-benzyl 2-(((2S,5R)-2-carbamoyl-3-methyl-7-oxo-1,6-diazabicyclo[3.2.1]oct-3-en-6-yl)oxy)-2-fluoroacetate], the half-life at 10 μM came to 5 min in data set [1] (s9, pH 7.4, read-out: T1/2 Human Intestinal S9); 19 min in data set [2] (s9, pH 7.4, read-out: T1/2 Rat Intestinal S9); 22 min in data set [3] (buffer); 0.9 min in data set [4] (s9, pH 7.4, read-out: T1/2 Rat Liver S9); 1.9 min in data set [5] (s9, pH 7.4, read-out: T1/2 Human Liver S9).

`CCOC(=O)[C@H](F)ON1C(=O)N2C[C@H]1C=C(C)[C@H]2C(=O)NOC[C@@H]1CCCN1` [Example 60, ethyl (2S)-2-fluoro-2-(((2S,5R)-3-methyl-7-oxo-2-((((S)-pyrrolidin-2-yl)methoxy)carbamoyl)-1,6-diazabicyclo[3.2.1]oct-3-en-6-yl)oxy)acetate TFA salt]: the half-life at 10 μM came out at 22 min in data set [1] (setting [9]); 21 min in data set [2] (setting [10]); 29 min in data set [3] (HEPES buffer without enzyme); 10 min in data set [4] (setting [11]); 9.9 min in data set [5] (setting [12]).

In the case of `CC1=C[C@@H]2CN(C(=O)N2O[C@H](F)C(=O)OCOC(=O)C(C)(C)C)[C@@H]1C(N)=O` [Example 64, [(2R)-2-[[(2S,5R)-2-carbamoyl-3-methyl-7-oxo-1,6-diazabicyclo[3.2.1]oct-3-en-6-yl]oxy]-2-fluoro-acetyl]oxymethyl 2,2-dimethylpropanoate], the half-life at 10 μM in data set [1] (setting [9]) is < 1 min; in data set [2] (setting [10]), 1.1 min; in data set [3] (HEPES buffer without enzyme), 1.2 min; in data set [4] (setting [11]), < 1 min; in data set [5] (setting [12]) it was < 1 min.

On to `CC1=C[C@@H]2CN(C(=O)N2O[C@H](F)C(=O)Oc2ccc3c(c2)CCC3)[C@@H]1C(N)=O` [Example 65, indan-5-yl (2R)-2-[[(2S,5R)-2-carbamoyl-3-methyl-7-oxo-1,6-diazabicyclo[3.2.1]oct-3-en-6-yl]oxy]-2-fluoro-acetate], for which the half-life at 10 μM is < 1 min in data set [1] (setting [9]); 1.3 min in data set [2] (setting [10]); 1.7 min in data set [3] (HEPES buffer without enzyme); < 1 min in data set [4] (setting [11]); < 1 min in data set [5] (setting [12]).

Take `CC1=C[C@@H]2CN(C(=O)N2O[C@@H](F)C(=O)O)[C@@H]1C(=O)NCCNS(N)(=O)=O` [Example 75, (2S)-2-fluoro-2-[[(2S,5R)-3-methyl-7-oxo-2-[2-(sulfamoylamino)ethyl-carbamoyl]-1,6-diazabicyclo[3.2.1]oct-3-en-6-yl]oxy]acetic acid lithium salt]: the “MIC of cefpodoxime in presence of BLI” value in data set [6] worked out at 0.125 µg/mL. Also, the values for the IC50 in data set [7] and in data set [8] were 83 nM and 420 nM, respectively.

With `CCOC(=O)[C@H](F)ON1C(=O)N2C[C@H]1C=C(C)[C@H]2C(=O)NCO` [Example 85, ethyl (2S)-2-fluoro-2-[[(2S,5R)-2-(hydroxymethylcarbamoyl)-3-methyl-7-oxo-1,6-diazabicyclo[3.2.1]oct-3-en-6-yl]oxy]acetate], the half-life at 10 μM in data set [1] (setting [9]) is 20 min; in data set [2] (setting [10]) it was 21 min; in data set [3] (HEPES buffer without enzyme), 26 min; in data set [4] (setting [11]), 3.8 min; in data set [5] (setting [12]), 3.5 min.

With `CCOC(=O)[C@@H](F)ON1C(=O)N2C[C@H]1C=C(C)[C@H]2C(=O)NCO` [Example 86, ethyl (2R)-2-fluoro-2-[[(2S,5R)-2-(hydroxymethylcarbamoyl)-3-methyl-7-oxo-1,6-diazabicyclo[3.2.1]oct-3-en-6-yl]oxy]acetate], the half-life at 10 μM in data set [1] (setting [9]) came to 36 min; in data set [2] (setting [10]) it was 43 min; in data set [3] (HEPES buffer without enzyme), 39 min; in data set [4] (setting [11]), 23 min; in data set [5] (setting [12]), 24 min.

`CCOC(=O)C(F)(F)ON1C(=O)N2C[C@H]1C(C)=C[C@H]2C(N)=O` [Example 90, ethyl 2-(((2S,5R)-2-carbamoyl-4-methyl-7-oxo-1,6-diazabicyclo[3.2.1]oct-3-en-6-yl)oxy)-2,2-difluoroacetate]: the half-life at 10 μM in data set [1] (setting [9]) stood at 1 min; in data set [2] (setting [10]), 3.3 min; in data set [3] (HEPES buffer without enzyme), 2.9 min; in data set [4] (setting [11]), 0.7 min; in data set [5] (setting [12]), 0.7 min.

With `CCOC(=O)CON1C(=O)N2C[C@H]1C(C)=C[C@H]2C(N)=O` [Example 92, ethyl 2-(((2S,5R)-2-carbamoyl-4-methyl-7-oxo-1,6-diazabicyclo[3.2.1]oct-3-en-6-yl)oxy)acetate], the half-life at 10 μM in data set [1] (setting [9]) came to 193 min; in data set [2] (setting [10]) it was 397 min; in data set [3] (HEPES buffer without enzyme) it was 161 min; in data set [4] (setting [11]), 11 min; in data set [5] (setting [12]), 24.8 min.

Take `CC1=C[C@@H](C(N)=O)N2C[C@@H]1N(OCC(=O)OC(C)C)C2=O` [Example 96, isopropyl 2-(((2S,5R)-2-carbamoyl-4-methyl-7-oxo-1,6-diazabicyclo[3.2.1]oct-3-en-6-yl)oxy)acetate]: the half-life at 10 μM in data set [1] (setting [9]) was 1480 min; in data set [2] (setting [10]) it was 211 min; in data set [3] (HEPES buffer without enzyme), > 100 min; in data set [4] (setting [11]), 10.3 min; in data set [5] (setting [12]), 57 min.
